In patent publication US4619942A, “Inhibition of Respiratory Syncytial virus-induced cell fusion by amidino compounds” (priority 1983, dated 1986):
Entries after “also recorded” stand apart in the source; their conditions may differ. Where two headings read alike, the source gives them in different places.

Tests used:
[1] = system: RS virus; conditions: moi 1-2, control titers 1-5 × 10^7
[2] = system: cell growth; conditions: cited from earlier work
[3] = system: RS virus; assay: RS virus cytopathology / syncytium formation in Hep-2 cells (Table 3); conditions: for Effect on RS virus cytopathology (syncytia) / Suppression of RS virus syncytia (in words): Hep-2; for Effect on RS virus cytopathology (syncytia): added 2 hour post infection
[4] = system: A549
[5] = system: CV-1
[6] = system: BHK-21
[7] = molecular target: plasminogen activator urokinase; conditions: cited from earlier work
[8] = system: Hep-2 cells
[9] = molecular target: pancreatic kallikrein; conditions: cited from earlier work
[10] = system: RS virus; assay: RS virus cytopathic effect in CV-1 cells; format: cell-based, A2 strain; conditions: 50 μM; 8 days post infection; over 50% of untreated monolayer destroyed
Source text: (§1) This reduction of cytopathology was even more obvious in RS virus infected CV-1 cells examined at 8 days post infection. It was observed that in untreated infected cultures over 50% of the monolayer was destroyed during the multiple cycles of RS virus growth.

[11] = system: P-3; assay: P-3 yield in CV-1 cells maintained with compound 7; format: cell-based, Parainfluenza type 3; conditions: 50 μM for 6 days; challenged on day 6
[12] = system: HSV-1; assay: HSV-1 yield in CV-1 cells maintained with compound 7; format: cell-based, herpes simplex type 1; conditions: 50 μM for 6 days; challenged on day 6
[13] = system: MP mutant of HSV-1; assay: Fusion of CV-1 cells by MP mutant of HSV-1; format: cell-based, herpes simplex type 1
Source text: A polykaryoctye-forming mutant (MP) of herpes simplex type 1 (HSV-1) was also employed.
as §1

[14] = system: RS virus; assay: Multiple cycle yields of RS virus (Table 5); format: cell-based, A2 strain; conditions: for Multiple cycle yield of RS virus, treated: 50 μM
Protocol: (§2) Virus yields were quantitated by calculating 50 percent end points according to the method of Reed and Muench (A simple method for estimating fifty percent end-points. Am. J. Hyg. b 27, 493-497 (1938)). Briefly, 0.05 ml of virus diluted in MEM plus 10% FCS was added to micro-titer plates. This was followed by the addition of 40,000-60,000 Hep-2 cells in a volume of 0.05 ml. Plates were incubated at 36° C. for 5-7 days. Six or eight wells were used for each dilution. Standard error analysis was done according to the method of Pizzi (Sampling variation of the fifty percent endpoint determined by the Reed-Muench (Behrens) method. Human Biol. 22, 151-180 (1950)).
(§3) For these experiments, Hep- 2 cells were infected with either RS virus or
(§4) P-3 virus at multiplicities of infection of 0.1, 0.01, or 0.001. Following
(§5) a 2 hour adsorption period, the cultures received medium with or without a
(§6) The monolayers were harvested after
(§7) multiple cycles of replication and the yields were determined in
(§8) inhibitor-free microtiter assays.

[15] = system: P-3 virus; assay: Multiple cycle yields of P-3 virus (Table 5); format: cell-based, Parainfluenza type 3; conditions: 50 μM
Protocol: as §2, §3, §4, §5, §6, §7, §8

[16] = system: RS virus; assay: RS yields after pretreatment of Hep-2 cells at high multiplicities of infection; format: cell-based, A2 strain
Source text: RS virus. Even at high multiplicities of infection, pretreatment of Hep-2
reduction of RS yields. The results in Table 5 also reveal that the […]

[17] = system: RS virus; format: cell-based, A2 strain

N=C(N)c1ccccc1 [Compound 1, Benzamidine, reference compound]
Single cycle yield of RS virus (RS virus titers) ([1]; 50 μM): 1.1 × 10^7 TCID50/ml | Concentration reducing cell growth rates [2]: greater than 500 μM | Effect on RS virus cytopathology (syncytia) ([3]; 50 μM): S

N=C(N)c1ccc(OCCCCCCOc2ccccc2)cc1 [Compound 3, 1-(4-Amidinophenoxy-6-phenoxyhexane]
Pattern of toxicity compared with Hep-2 cells [4]: identical pattern of toxicity | Pattern of toxicity compared with Hep-2 cells [5]: identical pattern of toxicity | Pattern of toxicity compared with Hep-2 cells [6]: identical pattern of toxicity | Single cycle yield of RS virus (RS virus titers) ([1]; 10 μM): 3.5 × 10^7 TCID50/ml | Effect on RS virus cytopathology (syncytia) ([3]; 10 μM): S

N=C(N)c1ccc(OCCCCCCCCOc2ccccc2)cc1 [Compound 4, 1-(4-Amidinophenoxy)-8-phenoxyoctane]
Single cycle yield of RS virus (RS virus titers) ([1]; 10 μM): 3.5 × 10^7 TCID50/ml | Effect on RS virus cytopathology (syncytia) ([3]; 10 μM): S

N=C(N)c1ccc(OCCC(O)COc2ccc(C(=N)N)cc2)cc1 (stereo not drawn) [Compound 5, 1,4-Di(4-amidinophenoxy)-2-butanol]
Single cycle yield of RS virus (RS virus titers) ([1]; 10 μM): 0.5 × 10^7 TCID50/ml | Single cycle yield of RS virus (RS virus titers) ([1]; 100 μM): 5.0 × 10^5 TCID50/ml | Ki [7]: 3200 nM | Inhibition of RS virus / RS virus-induced cell fusion (general statement) [3]: inhibitively effective against RS virus | Effect on RS virus cytopathology (syncytia) ([3]; 0.1 μM): S | Effect on RS virus cytopathology (syncytia) ([3]; 1.0 μM): S | Suppression of RS virus syncytia (in words) [3]: suppressed the appearance of the characteristic syncytia

N=C(N)c1ccc(OCc2cccc(COc3ccc(C(=N)N)cc3I)c2)c(I)c1 [Compound 6, α,α'-Bis(4-amidino-2-iodophenoxy)-m-xylene]
Cytotoxicity relative to other compounds (in words) [8]: as toxic as pentamidine | Pattern of toxicity compared with Hep-2 cells [4]: identical pattern of toxicity | Pattern of toxicity compared with Hep-2 cells [5]: identical pattern of toxicity | Pattern of toxicity compared with Hep-2 cells [6]: identical pattern of toxicity | Single cycle yield of RS virus (RS virus titers) ([1]; 10 μM): 6.3 × 10^6 TCID50/ml | Ki [9]: 31 nM | Effect on RS virus cytopathology (syncytia) ([3]; 0.1 μM): S | Effect on RS virus cytopathology (syncytia) ([3]; 1.0 μM): S

N=C(N)c1ccc2nc(Cc3nc4ccc(C(=N)N)cc4[nH]3)[nH]c2c1 [Compound 7, Bis(5-amidino-2-benzimidazolyl)methane]
RS virus cytopathic effect in CV-1 cells [10]: preservation of the monolayer with individual foci of infection appearing to be inhibited in their spread to uninfected areas of the culture | P-3 yield after prolonged exposure of CV-1 cells [11]: normal yields | HSV-1 yield after prolonged exposure of CV-1 cells [12]: normal yields | Effect on ability of MP mutant of HSV-1 to fuse cells [13]: no effect | Multiple cycle yield of RS virus, treated ([14]; moi 0.001, harvested 120 hr post infection, control 2.8 × 10^6): 1.1 × 10^4 TCID50 /ml | Multiple cycle yield of RS virus, treated ([14]; moi 0.01, harvested 120 hr post infection, control 3.2 × 10^7): 1.2 × 10^5 TCID50 /ml | Multiple cycle yield of RS virus, treated ([14]; moi 0.1, harvested 72 hr post infection, control 5.0 × 10^7): 6.3 × 10^6 TCID50 /ml | Effect on multiple cycle yields / spreading of RS virus (in words) ([14]; compound 7: 50 μM, low moi): considerably less; also recorded: greatly reduced the spreading | Effect on yield of P-3 virus (in words) ([15]; low moi): slight, but consistent decrease | Multiple cycle yield of P-3 virus, treated ([15]; moi 0.001, harvested 72 hr post infection, control 2.0 × 10^8): 6.3 × 10^7 TCID50 /ml | Multiple cycle yield of P-3 virus, treated ([15]; moi 0.01, harvested 48 hr post infection, control 7.9 × 10^7): 4.6 × 10^7 TCID50 /ml | Multiple cycle yield of P-3 virus, treated ([15]; moi 0.1, harvested 48 hr post infection, control 3.5 × 10^8): 7.9 × 10^7 TCID50 /ml | log reduction at 50 µM [16]: 1 to 2 | Behavior of RS virus replicated in presence of inhibitor versus control ([17]; 50 μM, RSI series vs C series): did not behave differently from the control | Effect on RS virus penetration (in words) ([17]; compound 7: 50 μM): penetration was delayed to a similar degree | RS virus titer, TCID50 (Log 10) ([17]; titer #1: RSI + I + A, 50 μM): 4.11 TCID50 (Log 10) | RS virus titer, TCID50 (Log 10) ([17]; titer #2: RSI + I + A (so in the source), 50 μM): 5.97 TCID50 (Log 10) | RS virus titer, TCID50 (Log 10) ([17]; titer #3: RSI - I + A, virus grown with 50 μM, none during adsorption): 5.50 TCID50 (Log 10) | RS virus titer, TCID50 (Log 10) ([17]; titer #4: RSI - I + A (so in the source), virus grown with 50 μM, none during adsorption): 5.97 TCID50 (Log 10) | RS virus titer, TCID50 (Log 10) ([17]; titer #5: C + I + A, untreated control #7 (C - I + A) 6.73): 5.59 TCID50 (Log 10) | RS virus titer, TCID50 (Log 10) ([17]; titer #6: C + I - A, untreated control #8 (C - I + A as printed) 6.97): 6.92 TCID50 (Log 10) | Pattern of toxicity compared with Hep-2 cells [4]: identical pattern of toxicity | Pattern of toxicity compared with Hep-2 cells [5]: identical pattern of toxicity | Pattern of toxicity compared with Hep-2 cells [6]: identical pattern of toxicity | Single cycle yield of RS virus (RS virus titers) ([1]; 50 μM): 6.3 × 10^7 TCID50/ml | Single cycle yield of RS virus (RS virus titers) ([1]; 500 μM): 2.0 × 10^7 TCID50/ml | Inhibition of RS virus / RS virus-induced cell fusion (general statement) [3]: inhibitively effective against RS virus | Effect on RS virus cytopathology (syncytia) ([3]; 0.1 μM): S | Fusion of RS virus-infected cells (morphology) ([3]; 1.0 μM, moi 1-2, 40 hrs post infection): abolition of fusion | minimal effective concentration ([3]; HEp-2, read-out: Lowest concentration inhibiting syncytium formation): 1 µM

N=C(N)c1ccc2nc(CCc3nc4ccc(C(=N)N)cc4[nH]3)[nH]c2c1 [Compound 8, 1,2-Bis(5-amidino-2-benzimidazolyl)ethane]
Single cycle yield of RS virus (RS virus titers) ([1]; 10 μM): 6.3 × 10^7 TCID50/ml | Single cycle yield of RS virus (RS virus titers) ([1]; 100 μM): 7.9 × 10^7 TCID50/ml | Inhibition of RS virus / RS virus-induced cell fusion (general statement) [3]: inhibitively effective against RS virus | Effect on RS virus cytopathology (syncytia) ([3]; 0.1 μM): S | Effect on RS virus cytopathology (syncytia) ([3]; 1.0 μM): S | Suppression of RS virus syncytia (in words) [3]: lower activity

N=C(N)c1ccc2[nH]ccc2c1 [Compound 9, 5-Amidinoindole]
Single cycle yield of RS virus (RS virus titers) ([1]; 10 μM): 2.9 × 10^7 TCID50/ml | Single cycle yield of RS virus (RS virus titers) ([1]; 100 μM): 6.3 × 10^7 TCID50/ml | Inhibition of RS virus / RS virus-induced cell fusion (general statement) [3]: inhibitively effective against RS virus | Effect on RS virus cytopathology (syncytia) ([3]; 0.1 μM): S | Effect on RS virus cytopathology (syncytia) ([3]; 1.0 μM): S

N=C(N)c1ccc2occc2c1 [Compound 10, 5-Amidinobenzofuran]
Single cycle yield of RS virus (RS virus titers) ([1]; 10 μM): 1.1 × 10^7 TCID50/ml | Single cycle yield of RS virus (RS virus titers) ([1]; 100 μM): 6.3 × 10^7 TCID50/ml | Effect on RS virus cytopathology (syncytia) ([3]; 10 μM): S | Effect on RS virus cytopathology (syncytia) ([3]; 100 μM): S

N=C(N)c1ccc2nc[nH]c2c1 [Compound 11, 5-Amidinobenzimidazole]
Cytotoxicity relative to other compounds (in words) [8]: possessed the same or even less toxic activity than benzamidine | Single cycle yield of RS virus (RS virus titers) ([1]; 100 μM): 8.7 × 10^7 TCID50/ml | Inhibition of RS virus / RS virus-induced cell fusion (general statement) [3]: inhibitively effective against RS virus | Effect on RS virus cytopathology (syncytia) ([3]; 1.0 μM): S | Effect on RS virus cytopathology (syncytia) ([3]; 10 μM): S | Suppression of RS virus syncytia (in words) [3]: suppressed the appearance of the characteristic syncytia

Cn1ccc2cc(C(=N)N)ccc21 [Compound 12, 5-Amidino-1-methylindole]
Cytotoxicity relative to other compounds (in words) [8]: intermediate in their cytotoxicity | Inhibition of RS virus / RS virus-induced cell fusion (general statement) [3]: inhibitively effective against RS virus | Suppression of RS virus syncytia (in words) [3]: suppressed the appearance of the characteristic syncytia

N=C(N)c1ccc(Cn2ccc3cc(C(=N)N)ccc32)cc1 [Compound 13, 5-Amidino-1-(4-amidinobenzyl)indole]
Cytotoxicity relative to other compounds (in words) [8]: intermediate in their cytotoxicity | Inhibition of RS virus / RS virus-induced cell fusion (general statement) [3]: inhibitively effective against RS virus | Effect on RS virus cytopathology (syncytia) ([3]; 0.1 μM): S | Effect on RS virus cytopathology (syncytia) ([3]; 1.0 μM): S | Suppression of RS virus syncytia (in words) [3]: suppressed the appearance of the characteristic syncytia
